The structures appear in SMILES notation. Where “and” joins values, the source holds several entries; their conditions need not be identical. Equal values may be shown once.

The assay has as its system HeLa-JRFL Env/CEM21 cell fusion, luciferase. The assay can be described thus: inhibitors of HIV Env-driven cell fusion, dose response, cherry-pick (AID 652057).

On to `C[C@H](CO)N1C[C@H](C)[C@H](CN(C)S(=O)(=O)c2ccccc2)Oc2ncc(/C=C/c3ccccc3)cc2C1=O`, for which the AC50 is 9.21 µM and 1.6 µM.

For `O=C(C[C@H]1C[C@H]2c3cc(NC(=O)c4ccc5c(c4)OCO5)ccc3O[C@H]2[C@H](CO)O1)NCc1ccc(Oc2ccccc2)cc1`, the AC50 is 35.1 µM.
